Experimental data reported in US20170166592A1, “AZA-BENZIMIDAZOLE INHIBITORS OF PAD4” (Padlock Therapeutics, Inc., priority 2015, published 2017).
Counter-ions that a name gives are not always drawn. Like-named read-outs stand apart in the source and are kept apart here.

Key:
hPAD4 = hPAD4 (Homo sapiens, UniProt Q9UM07); assay: PAD4 inhibition assay, RapidFire mass spectrometry (hPAD4 RFMS); type: biochemical
Description: Compounds of the present invention were assayed as inhibitors of PAD4 using the assay protocol described below.
Compounds were solubilised in 100% DMSO to achieve 100 mM final compound concentration. Compound stock solutions were stored at RT. A series of dilutions were prepared in DMSO and mixed 8 times with 20 μL, mixing volume. Final assay conditions were as follows:
Assay buffer (as aforementioned): 100 mM Tris-HCl (pH 7.6), 2 mM DTT, 1 mM CaCl2
Final concentrations: • 100 nM hPAD4 enzyme • 50 μM (8-fold sub-Km) substrate peptide • 0.5% DMSO
Total incubation time: 65 mins at 37° C.
Stop solution: 40 μl 5% TCA in ACN
0.25 μL of compound solution was added to 10 μL of 200 nM PAD4 in assay buffer (100 mM Tris-HCl pH 7.6, 2 mM DTT). After 5 mins, 10 μL of 100 μM of substrate in buffer (100 mM Tris-HCl pH 7.6, 2 mM DTT, 2 mM CaCl2) was added and the reaction incubated for 60 mins at 37 ° C. The enzymatic reaction was quenched by addition of 40 μl of 5% TCA in ACN (1.7% TCA final concentration) stop solution. Arginine containing substrate and citrulline containing product (+1 Da mass shift) were subjected to solid phase extraction on Agilent RapidFire (RF) 300 system and detected on a coupled, triple quadrupole Agilent 6460 QQQ mass spectrometry (MS) device under application of multiple reaction monitoring (MRM) for quantitation.

mPAD4 = mPAD4 (Mus musculus, UniProt Q9Z183); assay: PAD4 inhibition assay, RapidFire mass spectrometry (mPAD4 RFMS); type: biochemical
[1] = 100 nM hPAD4 enzyme, 50 μM substrate peptide, 65 mins at 37° C., read-out: hPAD4 RFMS IC50
[2] = pIC50=-log(IC50), read-out: hPAD4 RFMS pIC50 (converted)
[3] = pIC50=-log(IC50), read-out: mPAD4 RFMS pIC50 (converted)

Chain of hPAD4 (Q9UM07 whole entry): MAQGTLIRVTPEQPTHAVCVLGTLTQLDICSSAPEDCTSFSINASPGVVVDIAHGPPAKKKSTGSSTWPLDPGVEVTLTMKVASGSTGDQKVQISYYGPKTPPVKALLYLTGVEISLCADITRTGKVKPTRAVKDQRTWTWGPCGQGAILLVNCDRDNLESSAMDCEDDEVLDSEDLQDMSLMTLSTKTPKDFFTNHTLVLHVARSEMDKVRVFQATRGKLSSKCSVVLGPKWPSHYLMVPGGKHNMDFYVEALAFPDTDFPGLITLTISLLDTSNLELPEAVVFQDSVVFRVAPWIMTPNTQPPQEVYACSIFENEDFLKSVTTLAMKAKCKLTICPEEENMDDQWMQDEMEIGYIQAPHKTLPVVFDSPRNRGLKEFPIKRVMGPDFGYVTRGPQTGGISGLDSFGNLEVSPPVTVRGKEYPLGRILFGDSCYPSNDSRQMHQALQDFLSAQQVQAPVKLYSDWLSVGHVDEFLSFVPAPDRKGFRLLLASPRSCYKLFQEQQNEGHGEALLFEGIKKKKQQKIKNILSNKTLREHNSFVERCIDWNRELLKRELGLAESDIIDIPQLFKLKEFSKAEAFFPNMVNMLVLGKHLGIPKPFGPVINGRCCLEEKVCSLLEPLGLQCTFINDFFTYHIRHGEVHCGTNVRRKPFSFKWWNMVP
Chain of mPAD4 (Q9Z183 whole entry): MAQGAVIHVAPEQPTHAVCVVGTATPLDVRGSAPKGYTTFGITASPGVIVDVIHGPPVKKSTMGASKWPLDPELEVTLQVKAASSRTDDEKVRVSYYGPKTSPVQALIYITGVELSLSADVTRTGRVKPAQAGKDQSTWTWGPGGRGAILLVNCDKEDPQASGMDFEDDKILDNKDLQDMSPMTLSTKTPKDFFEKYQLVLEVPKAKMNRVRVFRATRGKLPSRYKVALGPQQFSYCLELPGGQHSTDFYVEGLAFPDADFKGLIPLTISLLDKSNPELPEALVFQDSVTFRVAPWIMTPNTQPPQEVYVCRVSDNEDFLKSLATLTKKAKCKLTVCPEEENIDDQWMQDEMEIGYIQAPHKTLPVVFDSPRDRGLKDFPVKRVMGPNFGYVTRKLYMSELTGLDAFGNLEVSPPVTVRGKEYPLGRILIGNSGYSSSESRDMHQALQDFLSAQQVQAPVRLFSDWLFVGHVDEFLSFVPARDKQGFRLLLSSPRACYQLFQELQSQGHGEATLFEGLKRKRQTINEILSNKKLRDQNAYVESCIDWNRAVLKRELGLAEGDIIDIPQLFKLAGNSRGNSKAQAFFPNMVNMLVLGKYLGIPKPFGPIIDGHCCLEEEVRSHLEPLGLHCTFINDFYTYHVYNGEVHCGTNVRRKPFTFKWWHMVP

Structure (SMILES) | IC50 (hPAD4; [1]) | IC50 (hPAD4; [2]) | IC50 (mPAD4; [3]) | IC50 (mPAD4; read-out: mPAD4 RFMS IC50) | hPAD4 RFMS pIC50 (hPAD4; pIC50=-log(IC50))
Cn1c(-c2cc3cccnc3n2CC2CC2)nc2cc(C(=O)N3CC[C@H]4CCN[C@H]4C3)cnc21 (single isomer, unassigned) [Compound I-9, hydrochloride] | ≥ 10000 nM | 10000 to 100000 nM | – | – | –
Cn1c(-c2cc3cccnc3n2CC2CC2)nc2cc(C(=O)N3CC[C@@H]4CCN[C@@H]4C3)cnc21 (single isomer, unassigned) [Compound I-10, hydrochloride] | 1000 to 5000 nM | 1000 to 10000 nM | 1000 to 10000 nM | 5000 to 10000 nM | –
Cn1c(-c2cc3cccnc3n2CC(F)(F)F)nc2cc(C(=O)N3CC[C@@H]4CCN[C@@H]4C3)cnc21 [Compound I-1] | ≥ 10000 nM | 10000 to 100000 nM | – | – | –
Cn1c(-c2cc3cccnc3n2CC(F)(F)F)nc2cc(C(=O)N3CC[C@H]4CCN[C@H]4C3)cnc21 [Compound I-3] | ≥ 10000 nM | – | – | – | –
CCn1c(-c2nc3cc(C(=O)N4CCC[C@@H](N)C4)cnc3n2CC)cc2cccnc21 [Compound I-4] | 5000 to 10000 nM | 1000 to 10000 nM | 1000 to 10000 nM | 1000 to 5000 nM | –
Cn1c(-c2cc3cccnc3n2CC(F)(F)F)nc2cc(C(=O)N3CCC[C@@H](N)C3)cnc21 [Compound I-5] | ≥ 10000 nM | 10000 to 100000 nM | – | – | –
Cn1c(-c2cc3cccnc3n2CC(F)(F)F)nc2cc(C(=O)N3CCC4CCNC4C3)cnc21 (centres unmarked) [Compound I-6] | ≥ 10000 nM | 10000 to 100000 nM | – | – | –
Cn1c(-c2cc3cccnc3n2CC2CC2)nc2cc(C(=O)N3CCC[C@@H](N)C3)cnc21 [Compound I-7] | 1000 to 5000 nM | 1000 to 10000 nM | ≤ 1000 nM | ≤ 1000 nM | –
Cn1c(-c2cc3cccnc3n2CC2CC2)nc2cc(C(=O)N3CCC4CCNC4C3)cnc21 (centres unmarked) [Compound I-8, 2-[1-(cyclopropylmethyl)-1H-pyrrolo[2,3-b]pyridin-2-yl]-3-methyl-6-{octahydro-1H-pyrrolo[2,3-c]pyridine-6-carbonyl}-3H-imidazo[4,5-b]pyridine hydrochloride] | 5000 to 10000 nM | 1000 to 10000 nM | – | – | –
Cn1c(-c2cc3cccnc3n2CC(C)(F)F)nc2cc(C(=O)N3CCC[C@@H](N)C3)cnc21 [Compound I-11] | 5000 to 10000 nM | 1000 to 10000 nM | 1000 to 10000 nM | 5000 to 10000 nM | –
N[C@@H]1CCCN(C(=O)c2cnc3c(c2)nc(-c2cc4cccnc4n2CC2CC2)n3CC(F)F)C1 [Compound I-12] | 1000 to 5000 nM | 1000 to 10000 nM | 1000 to 10000 nM | 1000 to 5000 nM | –
Cn1c(-c2cc3cccnc3n2CC2CC2)nc2cc(C(=O)N3C[C@@H](N)C[C@H](F)C3)cnc21 [Compound I-13] | 1000 to 5000 nM | 1000 to 10000 nM | ≤ 1000 nM | ≤ 1000 nM | –
Cn1c(-c2cc3cc(F)c(F)nc3n2CC2CC2)nc2cc(C(=O)N3CCC[C@@H](N)C3)cnc21 [Compound I-14] | 1000 to 5000 nM | 1000 to 10000 nM | ≤ 1000 nM | ≤ 1000 nM | –
CCn1c(-c2cc3ccc(OC)nc3n2CC2CC2)nc2cc(C(=O)N3CCC[C@@H](N)C3)cnc21 [Compound I-16] | ≤ 1000 nM | ≤ 1000 nM | ≤ 1000 nM | ≤ 1000 nM | –
Cn1c(-c2cc3cccnc3n2CC(F)(F)F)nc2cc(C(=O)N3CCC4CCNC4C3)cnc21 (centres unmarked) [Compound I-19] | ≥ 10000 nM | – | – | – | –
Cn1c(-c2cc3cccnc3n2CC(F)(F)F)nc2cc(C(=O)N3CC[C@H]4CCN[C@H]4C3)cnc21 [Compound I-20] | ≥ 10000 nM | 10000 to 100000 nM | – | – | –
Cn1c(-c2cc3cccnc3n2CC(F)(F)F)nc2cc(C(=O)N3CC[C@@H]4CCN[C@@H]4C3)cnc21 [Compound I-21] | ≥ 10000 nM | – | – | – | E/F
CCn1c(-c2cc3cccnc3n2CC2CC2)nc2cc(C(=O)N3CCC[C@@H](N)C3)cnc21 [Compound I-22] | 1000 to 5000 nM | 1000 to 10000 nM | ≤ 1000 nM | ≤ 1000 nM | –
Cn1c(-c2cc3cccnc3n2CC2CC2)nc2cc(C(=O)N3CCC4CCNC4C3)cnc21 (centres unmarked) [Compound I-24] | 5000 to 10000 nM | – | – | – | –
Cn1c(-c2cc3cccnc3n2CC2CC2)nc2cc(C(=O)N3CC[C@H]4CCN[C@H]4C3)cnc21 [Compound I-25] | ≥ 10000 nM | 10000 to 100000 nM | – | – | –

Structure (SMILES) | IC50 (hPAD4; [1]) | IC50 (hPAD4; [2]) | IC50 (mPAD4; [3]) | IC50 (mPAD4; read-out: mPAD4 RFMS IC50) | hPAD4 RFMS pIC50 (hPAD4; pIC50=-log(IC50))
Cn1c(-c2cc3cccnc3n2CC2CC2)nc2cc(C(=O)N3CC[C@@H]4CCN[C@@H]4C3)cnc21 [Compound I-26] | 1000 to 5000 nM | 1000 to 10000 nM | 1000 to 10000 nM | 5000 to 10000 nM | –
Cn1c(-c2cc3cc(F)c(F)cc3n2CC2CC2)nc2cc(C(=O)N3CCC[C@@H](N)C3)cnc21 [Compound I-30] | 1000 to 5000 nM | 1000 to 10000 nM | ≤ 1000 nM | ≤ 1000 nM | –
CC1CCC(N)CN1C(=O)c1cnc2c(c1)nc(-c1cc3cccnc3n1CC1CC1)n2C (centres unmarked) [Compound I-32] | 1000 to 5000 nM | 1000 to 10000 nM | 1000 to 10000 nM | 5000 to 10000 nM | –
CCn1c(-c2nc3cc(C(=O)N4C[C@H]5CC[C@@H]4[C@@H]5N)cnc3n2C)cc2ccc(OC)nc21 [Compound I-37] | ≤ 1000 nM | ≤ 1000 nM | ≤ 1000 nM | ≤ 1000 nM | –
CCn1c(-c2nc3cc(C(=O)N4C[C@H]5CC[C@@H]4[C@@H]5N)cnc3n2C)cc2cccnc21 [Compound I-39] | 1000 to 5000 nM | 1000 to 10000 nM | 1000 to 10000 nM | 1000 to 5000 nM | –
Cn1c(-c2cc3cccnc3n2CC2CC2)nc2cc(C(=O)N3C[C@H]4CC[C@@H]3[C@@H]4N)cnc21 [Compound I-41] | ≤ 1000 nM | ≤ 1000 nM | ≤ 1000 nM | ≤ 1000 nM | –
CCn1c(-c2nc3cc(C(=O)N4CCC[C@@H](N)C4)cnc3n2CCOC)cc2cccnc21 [Compound I-42] | ≥ 10000 nM | 10000 to 100000 nM | 1000 to 10000 nM | 1000 to 5000 nM | –
CCn1c(-c2nc3cc(C(=O)N4C[C@H]5CC[C@@H]4[C@@H]5N)cnc3n2CCOC)cc2cccnc21 [Compound I-43] | 1000 to 5000 nM | 1000 to 10000 nM | 1000 to 10000 nM | 1000 to 5000 nM | –
COc1ccc2cc(-c3nc4cc(C(=O)N5C[C@H]6CC[C@@H]5[C@@H]6N)cnc4n3C)n(CC3CC3)c2n1 [Compound I-44] | ≤ 1000 nM | ≤ 1000 nM | ≤ 1000 nM | ≤ 1000 nM | –
COCCn1c(-c2cc3cccnc3n2CC2CC2)nc2cc(C(=O)N3C[C@H]4CC[C@@H]3[C@@H]4N)cnc21 [Compound I-45] | ≤ 1000 nM | ≤ 1000 nM | 1000 to 10000 nM | 1000 to 5000 nM | –
COCCn1c(-c2cc3cccnc3n2CC2CC2)nc2cc(C(=O)N3CCC[C@@H](N)C3)cnc21 [Compound I-46] | 1000 to 5000 nM | 1000 to 10000 nM | 1000 to 10000 nM | 1000 to 5000 nM | –
COCCn1c(-c2cc3ccc(OC)nc3n2CC2CC2)nc2cc(C(=O)N3C[C@H]4CC[C@@H]3[C@@H]4N)cnc21 [Compound I-47] | ≤ 1000 nM | ≤ 1000 nM | ≤ 1000 nM | ≤ 1000 nM | –
CCn1c(-c2nc3cc(C(=O)N4C[C@H]5CC[C@@H]4[C@@H]5N)cnc3n2CCOC)cc2ccc(OC)nc21 [Compound I-48] | ≤ 1000 nM | ≤ 1000 nM | 1000 to 10000 nM | 1000 to 5000 nM | –
CCn1c(-c2nc3cc(C(=O)N4CCC[C@@H](N)C4)cnc3n2CCOC)cc2ccc(OC)nc21 [Compound I-49] | 5000 to 10000 nM | 1000 to 10000 nM | 1000 to 10000 nM | 1000 to 5000 nM | –
CO[C@]1(C)C[C@H](Cn2c(-c3cc4cccnc4n3CC3CC3)nc3cc(C(=O)N4C[C@H]5CC[C@@H]4[C@@H]5N)cnc32)C1 [Compound I-50] | ≤ 1000 nM | ≤ 1000 nM | ≤ 1000 nM | ≤ 1000 nM | –
CCn1c(-c2nc3cc(C(=O)N4C[C@H]5CC[C@@H]4[C@@H]5N)cnc3n2C[C@H]2C[C@@](C)(OC)C2)cc2ccc(OC)nc21 [Compound I-51] | ≤ 1000 nM | ≤ 1000 nM | ≤ 1000 nM | ≤ 1000 nM | –
Cn1c(-c2cc3ccc(C(F)(F)F)nc3n2CC2CC2)nc2cc(C(=O)N3C[C@H]4CC[C@@H]3[C@@H]4N)cnc21 [Compound I-52] | ≤ 1000 nM | ≤ 1000 nM | ≤ 1000 nM | ≤ 1000 nM | –
COc1ccc2cc(-c3nc4cc(C(=O)N5C[C@H]6CC[C@@H]5[C@@H]6N)cnc4n3C[C@H]3C[C@@](C)(OC)C3)n(CC3CC3)c2n1 [Compound I-53] | ≤ 1000 nM | ≤ 1000 nM | ≤ 1000 nM | ≤ 1000 nM | –
N[C@@H]1[C@@H]2CC[C@H]1N(C(=O)c1cnc3c(c1)nc(-c1cc4cccnc4n1CC1CC1)n3CC(F)F)C2 [Compound I-54] | ≤ 1000 nM | ≤ 1000 nM | ≤ 1000 nM | ≤ 1000 nM | –
